What was measured:
human recombinant HDAC6 = target: T1, human recombinant HDAC6 (Homo sapiens, UniProt Q9UBN7); experiment: HDAC6 enzyme activity inhibition assay (HDAC Fluorimetric Drug Discovery Kit); assay type: biochemical; conditions: 30° C. 60 minutes
T1 construct: purchased Calbiochem 382180
T1 sequence (Q9UBN7 1-1215): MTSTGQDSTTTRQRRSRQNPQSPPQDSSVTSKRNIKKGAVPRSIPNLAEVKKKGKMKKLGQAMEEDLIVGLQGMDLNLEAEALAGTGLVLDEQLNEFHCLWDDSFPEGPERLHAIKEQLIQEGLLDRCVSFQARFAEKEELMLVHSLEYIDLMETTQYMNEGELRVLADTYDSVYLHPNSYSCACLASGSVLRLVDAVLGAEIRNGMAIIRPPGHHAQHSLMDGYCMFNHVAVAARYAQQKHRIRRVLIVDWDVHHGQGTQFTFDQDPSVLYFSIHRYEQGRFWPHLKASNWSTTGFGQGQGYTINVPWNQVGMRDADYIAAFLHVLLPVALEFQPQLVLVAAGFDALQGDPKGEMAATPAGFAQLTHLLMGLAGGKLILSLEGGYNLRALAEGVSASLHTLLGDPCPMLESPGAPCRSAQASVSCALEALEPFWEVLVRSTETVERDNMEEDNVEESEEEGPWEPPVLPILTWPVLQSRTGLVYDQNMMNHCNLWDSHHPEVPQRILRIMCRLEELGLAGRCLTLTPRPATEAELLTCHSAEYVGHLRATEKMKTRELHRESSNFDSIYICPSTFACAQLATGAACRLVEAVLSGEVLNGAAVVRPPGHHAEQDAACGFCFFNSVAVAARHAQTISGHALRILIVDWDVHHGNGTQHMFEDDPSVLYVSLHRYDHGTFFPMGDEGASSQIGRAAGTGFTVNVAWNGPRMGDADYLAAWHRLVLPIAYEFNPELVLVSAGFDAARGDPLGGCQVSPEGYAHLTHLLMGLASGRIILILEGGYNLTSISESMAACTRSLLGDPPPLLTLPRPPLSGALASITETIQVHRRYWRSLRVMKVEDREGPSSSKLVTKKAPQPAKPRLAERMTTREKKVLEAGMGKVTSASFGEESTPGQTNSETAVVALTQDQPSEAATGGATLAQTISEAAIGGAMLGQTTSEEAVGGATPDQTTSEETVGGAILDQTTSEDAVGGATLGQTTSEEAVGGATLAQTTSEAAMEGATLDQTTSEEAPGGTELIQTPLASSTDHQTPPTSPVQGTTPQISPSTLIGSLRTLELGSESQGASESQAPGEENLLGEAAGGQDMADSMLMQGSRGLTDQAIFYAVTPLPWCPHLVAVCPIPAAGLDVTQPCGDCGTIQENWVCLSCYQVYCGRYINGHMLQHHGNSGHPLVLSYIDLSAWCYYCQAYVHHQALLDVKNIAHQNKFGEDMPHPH
Method: (§1) In order to examine the HDAC6 selectivity of the compounds of formula I of the present invention by HDAC1 and HDAC6 enzymatic activity inhibition assays, an experiment was performed using a conventional substance as a control.
(§2) HDAC enzyme activity was measured using a HDAC Fluorimetric Drug Discovery Kit (BML-AK511, 516, Enzo Life Science). For the HDAC1 enzyme activity test, human recombinant HDAC1 (BML-SE456) was used as an enzyme source, and Fluor de Lys®-“SIRT1 (BNL-KI177) was used as a substrate. A 5-fold dilution of the compound was seeded into a 96-well plate, and then 0.3 μg of the enzyme and 10 μM of the substrate were added to each well of the plate and allowed to react at 30° C. for 60 minutes. Then, Fluor de Lys®-Developer II (BML-KI176) was added thereto and allowed to react for 30 minutes, after which the fluorescence value (Ex 360, Em 460) was measured using a multi-plate reader (Flexstation 3, Molecular Device). The HDAC6 enzyme was tested using human recombinant HDAC6 (382180) (Calbiochem) according to the same protocol as the HDAC1 enzyme activity test method. Based on the resulting values, each IC50 value was calculated using GraphPad Prism4.0 program.

human recombinant HDAC1 = target: T2, human recombinant HDAC1 (Homo sapiens, UniProt Q13547); experiment: HDAC1 enzyme activity inhibition assay (HDAC Fluorimetric Drug Discovery Kit); assay type: biochemical; conditions: human recombinant HDAC1, 10 μM substrate, 30° C. 60 minutes
T2 construct: purchased Enzo Life Science BML-SE456
T2 sequence (Q13547 whole entry): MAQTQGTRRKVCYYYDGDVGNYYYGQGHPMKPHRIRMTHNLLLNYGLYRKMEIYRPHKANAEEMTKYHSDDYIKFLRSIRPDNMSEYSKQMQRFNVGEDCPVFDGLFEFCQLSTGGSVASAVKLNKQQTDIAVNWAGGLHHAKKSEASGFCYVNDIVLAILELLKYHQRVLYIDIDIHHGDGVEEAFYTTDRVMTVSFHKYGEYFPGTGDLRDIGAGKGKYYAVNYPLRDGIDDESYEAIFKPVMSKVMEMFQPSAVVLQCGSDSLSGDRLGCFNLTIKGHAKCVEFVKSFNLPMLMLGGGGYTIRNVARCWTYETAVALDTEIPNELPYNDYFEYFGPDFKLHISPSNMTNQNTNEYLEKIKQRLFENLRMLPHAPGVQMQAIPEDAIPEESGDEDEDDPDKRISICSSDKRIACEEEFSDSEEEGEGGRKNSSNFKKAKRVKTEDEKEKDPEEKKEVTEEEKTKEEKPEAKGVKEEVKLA
Method: as §1, §2

| SMILES | IC50 (human recombinant HDAC6) [µM] | IC50 (human recombinant HDAC1) [µM] |
| --- | --- | --- |
| FC(F)c1nnc(-c2cnc(NC3(c4ccc(C(F)(F)F)cc4)CC3)nc2)o1 [Compound 1738, 5-(5-(difluoromethyl)-1,3,4-oxadiazol-2-yl)-N-(1-(4-(trifluoromethyl)phenyl)cyclopropyl)pyrimidin-2-amine] | 0.132 | > 10 |
| Cc1ccccc1C1(Nc2ncc(-c3nnc(C(F)(F)F)o3)cn2)CCC1 [Compound 1672, N-(1-(o-tolyl)cyclobutyl)-5-(5-(trifluoromethyl)-1,3,4-oxadiazol-2-yl)pyrimidin-2-amine] | 0.234 | > 10 |
| Fc1c(Cl)cccc1C1(Nc2ncc(-c3nnc(C(F)F)o3)cn2)CCC1 [Compound 1965, N-(1-(3-chloro-2-fluorophenyl)cyclobutyl)-5-(5-(difluoromethyl)-1,3,4-oxadiazol-2-yl)pyrimidin-2-amine] | 0.07 | > 10 |
| Fc1ccc(C2(Nc3ncc(-c4nnc(C(F)F)o4)cn3)CCC2)cc1N1CCOCC1 [Compound 2046, 5-(5-(difluoromethyl)-1,3,4-oxadiazol-2-yl)-N-(1-(4-fluoro-3-morpholinophenyl)cyclobutyl)pyrimidin-2-amine] | 0.329 | > 10 |
| FC(F)c1nnc(-c2cnc(NC3(c4ccccc4)CCCCC3)nc2)o1 [Compound 1581, 5-(5-(difluoromethyl)-1,3,4-oxadiazol-2-yl)-N-(1-phenylcyclohexyl)pyrimidin-2-amine] | 0.135 | > 10 |
| Fc1ccc(Cl)c(C2(Nc3ncc(-c4nnc(C(F)(F)F)o4)cn3)CCC2)c1 [Compound 1962, N-(1-(2-chloro-5-fluorophenyl)cyclobutyl)-5-(5-(trifluoromethyl)-1,3,4-oxadiazol-2-yl)pyrimidin-2-amine] | 0.888 | > 10 |
| FC(F)c1nnc(-c2cnc(NC3(c4cccc(C(F)(F)F)c4)CC3)nc2)o1 [Compound 1740, 5-(5-(difluoromethyl)-1,3,4-oxadiazol-2-yl)-N-(1-(3-(trifluoromethyl)phenyl)cyclopropyl)pyrimidin-2-amine] | 0.062 | > 10 |
| Fc1ccc(C2(Nc3ncc(-c4nnc(C(F)F)o4)cn3)CC2)c(F)c1 [Compound 2061, 5-(5-(difluoromethyl)-1,3,4-oxadiazol-2-yl)-N-(1-(2,4-difluorophenyl)cyclopropyl)pyrimidin-2-amine] | 0.043 | > 10 |
| FC(F)c1nnc(-c2cnc(NC3(c4ccccc4OC(F)(F)F)CCC3)nc2)o1 [Compound 2028, 5-(5-(difluoromethyl)-1,3,4-oxadiazol-2-yl)-N-(1-(2-(trifluoromethoxy)phenyl)cyclobutyl)pyrimidin-2-amine] | 0.302 | > 10 |
| FC(F)(F)c1nnc(-c2cnc(NC3(c4ccc(Cl)cc4)CC3)nc2)o1 [Compound 2053, N-(1-(4-chlorophenyl)cyclopropyl)-5-(5-(trifluoromethyl)-1,3,4-oxadiazol-2-yl)pyrimidin-2-amine] | 0.519 | > 10 |
| Fc1ccc(C2(Nc3ncc(-c4nnc(C(F)F)o4)cn3)CCC2)cc1 [Compound 1611, 5-(5-(difluoromethyl)-1,3,4-oxadiazol-2-yl)-N-(1-(4-fluorophenyl)cyclobutyl)pyrimidin-2-amine] | 0.038 | > 10 |
| Fc1cc(C2(Nc3ncc(-c4nnc(C(F)F)o4)cn3)CC2)ccc1Cl [Compound 2054, N-(1-(4-chloro-3-fluorophenyl)cyclopropyl)-5-(5-(difluoromethyl)-1,3,4-oxadiazol-2-yl)pyrimidin-2-amine] | 0.083 | > 10 |
| Fc1cc(F)cc(C2(Nc3ncc(-c4nnc(C(F)F)o4)cn3)CCC2)c1 [Compound 1819, 5-(5-(difluoromethyl)-1,3,4-oxadiazol-2-yl)-N-(1-(3,5-difluorophenyl)cyclobutyl)pyrimidin-2-amine] | 0.07 | > 10 |
| Cc1ccccc1C1(Nc2ncc(-c3nnc(C(F)F)o3)cn2)CC1 [Compound 2055, 5-(5-(difluoromethyl)-1,3,4-oxadiazol-2-yl)-N-(1-(o-tolyl)cyclopropyl)pyrimidin-2-amine] | 0.031 | > 10 |
| Fc1ccc(Cl)cc1C1(Nc2ncc(-c3nnc(C(F)F)o3)cn2)CCC1 [Compound 1963, N-(1-(5-chloro-2-fluorophenyl)cyclobutyl)-5-(5-(difluoromethyl)-1,3,4-oxadiazol-2-yl)pyrimidin-2-amine] | 0.089 | > 10 |
| FC(F)c1nnc(-c2cnc(NC3(c4cccc(C5CCN(C6COC6)CC5)c4)CCC3)nc2)o1 [Compound 2060, 5-(5-(difluoromethyl)-1,3,4-oxadiazol-2-yl)-N-(1-(3-(1-(oxetan-3-yl)piperidin-4-yl)phenyl)cyclobutyl)pyrimidin-2-amine] | 0.221 | > 10 |
| FC(F)c1nnc(-c2cnc(NC3(c4ccc(N5CCOCC5)cc4)CCC3)nc2)o1 [Compound 2062, 5-(5-(difluoromethyl)-1,3,4-oxadiazol-2-yl)-N-(1-(4-morpholinophenyl)cyclobutyl)pyrimidin-2-amine] | 0.256 | > 10 |
| Fc1ccc(C2(Nc3ncc(-c4nnc(C(F)(F)F)o4)cn3)CC2)cc1Cl [Compound 1723, N-(1-(3-chloro-4-fluorophenyl)cyclopropyl)-5-(5-(trifluoromethyl)-1,3,4-oxadiazol-2-yl)pyrimidin-2-amine] | 0.219 | > 10 |
| FC(F)(F)c1nnc(-c2cnc(NC3(c4ccccc4Cl)CCC3)nc2)o1 [Compound 1617, N-(1-(2-chlorophenyl)cyclobutyl)-5-(5-(trifluoromethyl)-1,3,4-oxadiazol-2-yl)pyrimidin-2-amine] | 0.211 | > 10 |
| Cc1cccc(C2(Nc3ncc(-c4nnc(C(F)(F)F)o4)cn3)CCC2)c1 [Compound 1674, N-(1-(m-tolyl)cyclobutyl)-5-(5-(trifluoromethyl)-1,3,4-oxadiazol-2-yl)pyrimidin-2-amine] | 0.132 | > 10 |
| Fc1ccc(C2(Nc3ncc(-c4nnc(C(F)F)o4)cn3)CC2)cc1 [Compound 1711, 5-(5-(difluoromethyl)-1,3,4-oxadiazol-2-yl)-N-(1-(4-fluorophenyl)cyclopropyl)pyrimidin-2-amine] | 0.026 | > 10 |
| FC(F)c1nnc(-c2cnc(NC3(c4cccc(Cl)c4)CC3)nc2)o1 [Compound 2050, N-(1-(3-chlorophenyl)cyclopropyl)-5-(5-(difluoromethyl)-1,3,4-oxadiazol-2-yl)pyrimidin-2-amine] | 0.026 | > 10 |
| COc1ccc(C2(Nc3ncc(-c4nnc(C(F)F)o4)cn3)CC2)cc1 [Compound 2049, 5-(5-(difluoromethyl)-1,3,4-oxadiazol-2-yl)-N-(1-(4-methoxyphenyl)cyclopropyl)pyrimidin-2-amine] | 0.051 | > 10 |
| FC(F)c1nnc(-c2cnc(NC3(c4ccc(OC(F)(F)F)cc4)CCC3)nc2)o1 [Compound 1822, 5-(5-(difluoromethyl)-1,3,4-oxadiazol-2-yl)-N-(1-(4-(trifluoromethoxy)phenyl)cyclobutyl)pyrimidin-2-amine] | 0.282 | > 10 |

Reference: patent US10494355B2, “Oxadiazole amine derivative compounds as histone deacetylase 6 inhibitor, and the pharmaceutical composition comprising the same” (Chong Kun Dang Pharmaceutical Corp., priority 2015, dated 2019)
